Results published in PubChem BioAssay (NCI).
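Exposure lasted 48 hours, with cells grown in 96-well plates and compounds tested at five concentrations. GI50 marks 50% less growth. At the TGI there is no net growth.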

Experiments:
Assay in all cases: DTP human tumour cell line panel, 48 h
[1] = test system: SK-OV-3 ovarian
[2] = test system: SR leukemia
[3] = test system: COLO 205 colon
[4] = test system: 786-0 renal
[5] = test system: HS 578T breast
[6] = test system: MCF7 breast
[7] = test system: SF-268 CNS
[8] = test system: UACC-257 melanoma
[9] = test system: KM12 colon
[10] = test system: EKVX NSCLC
[11] = test system: BT-549 breast
[12] = test system: HCT-15 colon
[13] = test system: PC-3 prostate
[14] = test system: U251 CNS
[15] = test system: K-562 leukemia
[16] = test system: SK-MEL-2 melanoma
[17] = test system: TK-10 renal
[18] = test system: SK-MEL-5 melanoma
[19] = test system: HT29 colon
[20] = test system: NCI/ADR-RES ovarian
[21] = test system: HOP-62 NSCLC
[22] = test system: NCI-H460 lung
[23] = test system: CAKI-1 renal
[24] = test system: UO-31 renal
[25] = test system: HL-60(TB) leukemia
[26] = test system: HCC-2998 colon
[27] = test system: A498 renal
[28] = test system: RXF 393 renal
[29] = test system: RPMI-8226 leukemia
[30] = test system: M14 melanoma
[31] = test system: IGROV1 ovarian
[32] = test system: HOP-92 NSCLC
[33] = test system: SNB-75 CNS
[34] = test system: OVCAR-5 ovarian
[35] = test system: SW-620 colon
[36] = test system: MDA-MB-231 breast
[37] = test system: SNB-19 CNS
[38] = test system: OVCAR-4 ovarian
[39] = test system: NCI-H226 lung
[40] = test system: SF-539 CNS
[41] = test system: LOX IMVI melanoma
[42] = test system: NCI-H522 lung
[43] = test system: OVCAR-8 ovarian
[44] = test system: DU-145 prostate
[45] = test system: T-47D breast
[46] = test system: UACC-62 melanoma
[47] = test system: OVCAR-3 ovarian
[48] = test system: HCT-116 colon
[49] = test system: SK-MEL-28 melanoma
[50] = test system: SN12C renal
[51] = test system: MDA-MB-435
[52] = test system: CCRF-CEM leukemia
[53] = test system: MDA-MB-468 breast
[54] = test system: NCI-H23 lung
[55] = test system: MALME-3M melanoma
[56] = test system: ACHN renal
[57] = test system: SF-295 CNS
[58] = test system: A549 NSCLC
[59] = test system: MOLT-4 leukemia

In the case of `C=CC(=O)Nc1ccc(C(=O)/C=C/c2ccc(N(C)CCF)cc2)c(O)c1`, the GI50 [1] was 6.47 µM, the TGI [1] was 21.4 µM and the GI50 [2] was 0.586 µM. It also gave a TGI [2] of 6.2 µM, a GI50 [3] of 1.98 µM and a TGI [3] of 4.86 µM. It also gave a GI50 [4] of 1.65 µM, a TGI [4] of 3.57 µM and a GI50 [5] of 2.97 µM. The TGI [5] was 17.3 µM, the GI50 [6] was 1.89 µM and the TGI [6] was 10.7 µM. For the same molecule, the GI50 [7] was 2.47 µM, the TGI [7] was 8.58 µM and the GI50 [8] was 2.53 µM. It also gave a TGI [8] of 10.9 µM, a GI50 [9] of 2.1 µM and a TGI [9] of 5.25 µM. For the same molecule, the GI50 [10] was 3.37 µM, the TGI [10] was 13.8 µM and the GI50 [11] was 1.55 µM. The TGI [11] was 3.78 µM, the GI50 [12] was 1.41 µM and the TGI [12] was 3.01 µM. For the same molecule, the GI50 [13] was 2.22 µM, the TGI [13] was 13.6 µM and the GI50 [14] was 1.88 µM. The TGI [14] was 5.17 µM, the GI50 [15] was 2.27 µM and the TGI [15] was 24 µM. It also gave a GI50 [16] of 2.53 µM, a TGI [16] of 7.88 µM and a GI50 [17] of 3.12 µM. For the same molecule, the TGI [17] was 8.4 µM, the GI50 [18] was 2.14 µM and the TGI [18] was 6.49 µM. The GI50 [19] was 1.57 µM, the TGI [19] was 3.31 µM and the GI50 [20] was 1.55 µM. It also gave a TGI [20] of 4.4 µM, a GI50 [21] of 3.26 µM and a TGI [21] of 13 µM. The GI50 [22] was 1.87 µM, the TGI [22] was 5.46 µM and the GI50 [23] was 1.87 µM. The TGI [23] was 4.14 µM, the GI50 [24] was 1.28 µM and the TGI [24] was 3.74 µM. For the same molecule, the GI50 [25] was 1.77 µM, the TGI [25] was 5.3 µM and the GI50 [26] was 1.78 µM. The TGI [26] was 3.64 µM, the GI50 [27] was 3.52 µM and the TGI [27] was 17.7 µM. For the same molecule, the GI50 [28] was 1.52 µM, the TGI [28] was 3.09 µM and the GI50 [29] was 1.6 µM. For the same molecule, the TGI [29] was 5.92 µM, the GI50 [30] was 1.7 µM and the TGI [30] was 4.19 µM. It also gave a GI50 [31] of 2 µM, a TGI [31] of 6 µM and a GI50 [32] of 0.527 µM. It also gave a TGI [32] of 4 µM, a GI50 [33] of 2.1 µM and a TGI [33] of 9.84 µM. It also gave a GI50 [34] of 1.98 µM, a TGI [34] of 4.3 µM and a GI50 [35] of 1.52 µM. For the same molecule, the TGI [35] was 3.36 µM, the GI50 [36] was 2.19 µM and the TGI [36] was 5.58 µM. It also gave a GI50 [37] of 3.67 µM, a TGI [37] of 15 µM and a GI50 [38] of 2.95 µM. It also gave a TGI [38] of 14 µM, a GI50 [39] of 1.92 µM and a TGI [39] of 5.32 µM. It also gave a GI50 [40] of 1.67 µM, a TGI [40] of 3.5 µM and a GI50 [41] of 1.33 µM. The TGI [41] was 2.69 µM, the GI50 [42] was 1.42 µM and the TGI [42] was 2.95 µM. For the same molecule, the GI50 [43] was 1.51 µM, the TGI [43] was 3.86 µM and the GI50 [44] was 2.52 µM. For the same molecule, the TGI [44] was 10.3 µM, the GI50 [45] was 2.47 µM and the TGI [45] was 10 µM. For the same molecule, the GI50 [46] was 1.3 µM, the TGI [46] was 2.77 µM and the GI50 [47] was 1.62 µM. For the same molecule, the TGI [47] was 4.53 µM, the GI50 [48] was 1.5 µM and the TGI [48] was 3 µM. It also gave a GI50 [49] of 1.58 µM, a TGI [49] of 3.14 µM and a GI50 [50] of 1.86 µM. It also gave a TGI [50] of 5.2 µM, a GI50 [51] of 1.72 µM and a TGI [51] of 4.6 µM. It also gave a GI50 [52] of 2.15 µM, a TGI [52] of 10.5 µM and a GI50 [53] of 1.63 µM. It also gave a TGI [53] of 4.28 µM, a GI50 [54] of 1.68 µM and a TGI [54] of 3.99 µM. For the same molecule, the GI50 [55] was 1.43 µM, the TGI [55] was 3.46 µM and the GI50 [56] was 1.66 µM. The TGI [56] was 3.45 µM, the GI50 [57] was 4.49 µM and the TGI [57] was 18.9 µM. The GI50 [58] was 2.62 µM, the TGI [58] was 12.7 µM and the GI50 [59] was 1.99 µM. It also gave a TGI [59] of 6.85 µM.
